In US12139481B2, “Compositions comprising macrocycle derivatives incorporating bridged macrocycles and methods of producing and using same” (Southwestern Oklahoma State University, priority 2015, dated 2024):
Where “and” joins values, the source holds several entries; their conditions need not be identical. Equal entries are not always repeated.

Assays:
[1] = tested on: Cryptococcus neoformans ATCC 90113; experiment: Antimicrobial microdilution assay against Cryptococcus neoformans (modified CLSI/NCCLS, optical density); type: cell-based; details: for X more potent than Amphotericin B: C. neoformans, ratio of molar IC50 to Amphotericin B; for C. neoformans IC50 / IC50: in vitro, C. neoformans ATCC 90113; for IC50: read-out: C. neoformans IC50 (mol/L)
Procedure, shortened: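 Fungicidal endpoint taken by subculturing 5 μL from each clear well onto agar, MFC being the lowest concentration with no regrowth. Duplicate wells of serially diluted compound (20% DMSO/saline) in RPMI pH 6.0, read at 630 nm pre- and post-incubation, under modified CLSI methods. IC50 means 50% growth inhibition against controls.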

C. glabrata ATCC 90030 = experiment: Antifungal broth dilution assay against C. glabrata (modified CLSI); type: cell-based, Candida glabrata; details: for C. glabrata IC50 / IC50: in vitro; for IC50: converted with molecular weight; for X more potent than Amphotericin B: molar IC50 ratio versus amphotericin B
Procedure, shortened: (§1)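 Growth read by optical density at 530 nm, duplicate wells, 1% final DMSO. Staphylococcus spp.: Mueller-Hinton pH 7.3, 5.0×10^5 CFU/ml, 35 °C for 16-20 h; Candida spp.: RPMI/dextrose/glutamine/MOPS pH 6.0, 1.5×10^3 CFU/ml, 35 °C for 46-50 h. Reported values are 50% inhibition versus controls, no-growth MIC, and killing MFC/MBC.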

[2] = tested on: S. mansoni newly transformed schistosomula (NTS); experiment: In vitro testing on Schistosoma mansoni newly transformed schistosomula (NTS), viability score; type: cell-based; details: NTS S. mansoni, 33 μM, 72 h
Procedure: Assays were prepared according to the laboratory SOP for the lab of Dr. Jennifer Keiser (Swiss Tropical and Public Health Institute, Basel). Harvested S. mansoni cercariae (Liberian strain) obtained from infected Biomphalaria glabrata snails were mechanically transformed into newly transformed schistosomula (NTS) following standard procedures. Briefly, snails were placed under light in the morning to stimulate cercarial shedding. The cercarial suspension was collected, cooled for 30 minutes, and then vigorously pipetted (30×) and vortexed (3 minutes). The suspension was then placed in the incubator (37° C. and 5% CO2) for 30 minutes, and the vortexing and pipetting steps were repeated. The transformation was complete at this point, and the tails were separated from the heads by rinsing three times with cold HBSS. NTS were then incubated overnight in culture medium overnight and used the next day.
The original stock compounds (which were not already dissolved) were dissolved in dimethyl sulfoxide (DMSO) to a concentration of 10 mM. 100 NTS were placed in each well of a 96-well plate with culture medium, and the test compound for a final well volume of 250 μl. […] NTS incubated with no more than 1% DMSO served as control. NTS were kept in an incubator at 37° C. and 5% CO2 for up to 72 hours. After 72 hours, the condition of the NTS was microscopically evaluated using a scale from 3 (normal activity and no tegument alteration) to 0 (dead, completely granulated).

[3] = tested on: L. donovani promastigotes; experiment: Antileishmanial Alamar Blue assay on promastigotes; type: cell-based, Leishmania donovani; details: for X more potent than Pentamidine: L. donovani, ratio of molar IC50 to Pentamidine; for L. donovani IC50 / IC50: promastigotes, 48 hours, Alamar Blue; for IC50: read-out: L. donavani IC50
Procedure, shortened: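 Alamar Blue fluorescence (544/590 nm) quantified growth after 48 hours at 26° C of compound-treated promastigotes. Parasites were seeded at 5×10^5/mL in RPMI 1640 plus 10% FCS; drug range 50-3.1 μg/mL, and IC50 derived by plotting percent growth against test concentration.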

[4] = tested on: Staphylococcus aureus ATCC 29213; experiment: Antibacterial broth dilution assay against S. aureus (modified CLSI); type: cell-based
Procedure, shortened: as §1

Row | Compound | X more potent than Amphotericin B [1] | C. neoformans IC50 [1] | IC50 [1] | C. glabrata IC50 (C. glabrata ATCC 90030) | IC50 (C. glabrata ATCC 90030) | X more potent than Amphotericin B (C. glabrata ATCC 90030) | Effect at 72 h (%) [2] | X more potent than Pentamidine [3] | L. donovani IC50 [3] | IC50 [3] | S. aureus IC50 ([4]; in vitro) | IC50 ([4]; in vitro, converted with molecular weight) | X more potent than ciprofloxacen ([4]; molar IC50 ratio versus ciprofloxacen)
1 | CC(=O)[O-].CC(=O)[O-].CN(C)C=O.F[P-](F)(F)(F)(F)F.F[P-](F)(F)(F)(F)F.[Co+2].[Co+2].c1cc(CN2CCNCCN3CCN(CC3)CC2)ccc1CN1CCNCCN2CCN(CC2)CC1 [OB30, [Co2(p-SB-Cyclens)(OAc)2][PF6]2•DMF] | 0.33 | ≤ 0.800 mg/L | 0.729 µM | 0.800 mg/L | 0.729 µM | 1.95 | 5.41% | – | – | – | – | – | –
2 | CC(=O)[O-].CC(=O)[O-].CC(=O)[O-].F[P-](F)(F)(F)(F)F.F[P-](F)(F)(F)(F)F.F[P-](F)(F)(F)(F)F.F[P-](F)(F)(F)(F)F.[NH4+].[Zn+2].[Zn+2].[Zn+2].c1c(CN2CCCN3CCN(CCCNCC2)CC3)cc(CN2CCCN3CCN(CCCNCC2)CC3)cc1CN1CCCN2CCN(CCCNCC1)CC2 [CDG026, [Zn3(tris-SB-Cyclams)(OAc)3][PF6]3•NH4PF6] | 0.04 | 10.030 mg/L | 5.69 µM | 3.420 mg/L | 1.94 µM | 0.73 | 11.71% | – | – | – | – | – | –
3 | CC(=O)[O-].CC(=O)[O-].CC(=O)[O-].CN1CCN2CCN(CC1)CCN(Cc1cc(CN3CCN4CCN(C)CCN(CC4)CC3)cc(CN3CCN4CCN(C)CCN(CC4)CC3)c1)CC2.F[P-](F)(F)(F)(F)F.F[P-](F)(F)(F)(F)F.F[P-](F)(F)(F)(F)F.O.O.O.O.O.O.[Ni+2].[Ni+2].[Ni+2] [BNS19] | – | – | – | 4.900 mg/L | 2.97 µM | 0.48 | 18.02% | – | – | – | – | – | –
4 | CC(=O)[O-].CC(=O)[O-].CC(=O)[O-].F[P-](F)(F)(F)(F)F.F[P-](F)(F)(F)(F)F.F[P-](F)(F)(F)(F)F.O.[Ni+2].[Ni+2].[Ni+2].c1c(CN2CCNCCN3CCN(CC3)CC2)cc(CN2CCNCCN3CCN(CC3)CC2)cc1CN1CCNCCN2CCN(CC2)CC1 [CDG030, [Ni3(tris-SB-Cyclens)0Ac)3][PF6]3•H2O] | 0.45 | ≤ 0.800 mg/L | 0.528 µM | 4.170 mg/L | 2.75 µM | 0.52 | 18.02% | – | – | – | – | – | –
5 | Cl.Cl.Cl.Cl.Cl.Cl.Cl.Cl.O.O.O.O.c1cc(CN2CCCN3CCN(CCCNCC2)CC3)cc(CN2CCCN3CCN(CCCNCC2)CC3)c1 [KS226, m-SB-cyclams HCl salt] | 3.13 | 0.070 mg/L | 0.0762 µM | – | – | – | 5.41% | 0.28 | 17.61 mg/L | 19.2 µM | – | – | –
6 | CC(=O)[O-].F[P-](F)(F)(F)(F)F.[Co+2].c1ccc(CN2CCCN3CCN(CCCN(Cc4ccccc4)CC3)CC2)cc1 [TC11, [Co(Bn2Bcyclam)(OAc)]PF6] | – | – | – | – | – | – | 24.32% | 0.10 | 35.29 mg/L | 52.7 µM | – | – | –
7 | CC(=O)[O-].CC(=O)[O-].CN1CCCN2CCN(CCCN(Cc3cccc(CN4CCCN5CCN(C)CCCN(CC5)CC4)c3)CC2)CC1.F[P-](F)(F)(F)(F)F.F[P-](F)(F)(F)(F)F.[Cu+2].[Cu+2] [RM52, [Cu2(m-CB-Cyclams)(OAc)2][PF6]2] | 0.32 | 0.820 mg/L | 0.733 µM | 4.940 mg/L | 4.42 µM | 0.32 | 5.41% | – | – | – | – | – | –
8 | [Ni(Bn1Me1Bcyclam)(OAc)]PF6•0.5NH4PF6 [TRH11B] | – | – | – | – | – | – | 24.32% | 0.09 | 38.64 mg/L | 59.7 µM | – | – | –
9 | CC(=O)[O-].F[P-](F)(F)(F)(F)F.[Ni+2].c1ccc(CN2CCN3CCN(CC2)CCN(Cc2ccccc2)CC3)cc1 [TC10, [Ni(Bn2Bcyclen)(OAc)]PF6] | – | – | – | – | – | – | 30.63% | 0.31 | 10.95 mg/L | 17.1 µM | – | – | –
10 | [Cu3(tris-SB-Cyclams)(OAc)3][PF6]3•1.5NH4PF6 [CDG027] | 0.34 | 1.280 mg/L | 0.696 µM | 1.630 mg/L | 0.886 µM | 1.60 | 11.71% | – | – | – | – | – | –
11 | CN1CCN2CCN(C)CCN(CC1)CC2.F[P-](F)(F)(F)(F)F.[Cl-].[Cl-].[Mn+3] [CNV06, [Mn(Bcyclen)Cl2]PF6] | 0.02 | 6.390 mg/L and 5.579 mg/L | 12.8 µM and 11.2 µM | – | – | – | 0.00% | – | – | – | – | – | –
12 | [Cu3(tris-SB-Cyclens)(OAc)3][PF6]3•0.5NH4PF6 [CDG022] | 0.07 | 5.480 mg/L | 3.44 µM | – | – | – | 11.71% | – | – | – | – | – | –
13 | [Ni2(m-SB-Cyclams)(OAc)2][PF6]2 [KS25] | 0.02 | 16.030 mg/L | 15.7 µM | – | – | – | 18.02% | – | – | – | – | – | –
14 | m-CB-cyclens HCl salt [DJC05C] | 0.23 | 0.940 mg/L | 1.06 µM | – | – | – | 5.41% | 0.21 | 22.89 mg/L | 25.7 µM | – | – | –
15 | CN1CCCN2CCN(CCCN(Cc3cc(CN4CCCN5CCN(C)CCCN(CC5)CC4)cc(CN4CCCN5CCN(C)CCCN(CC5)CC4)c3)CC2)CC1 [BNS018, tris-CB-cyclams] | 2.21 | 0.090 mg/L | 0.108 µM | – | – | – | 11.71% | 0.57 | 7.73 mg/L | 9.25 µM | – | – | –
16 | [Zn3(tris-SB-Cyclens)(OAc)3][PF6]3•0.5NH4PF6 [CDG023] | 0.29 | 1.310 mg/L | 0.819 µM | – | – | – | 18.02% | – | – | – | – | – | –
17 | CC(=O)[O-].CC(=O)[O-].CC(=O)[O-].CN1CCN2CCN(CC1)CCN(Cc1cc(CN3CCN4CCN(C)CCN(CC4)CC3)cc(CN3CCN4CCN(C)CCN(CC4)CC3)c1)CC2.F[P-](F)(F)(F)(F)F.F[P-](F)(F)(F)(F)F.F[P-](F)(F)(F)(F)F.[Cu+2].[Cu+2].[Cu+2] [BNS21, [Cu3(tris-CB-Cyclens)(OAc)3][PF6]3] | 0.28 | 1.320 mg/L | 0.85 µM | – | – | – | 5.41% | – | – | – | – | – | –
18 | CC(=O)[O-].CC(=O)[O-].CC(=O)[O-].F[P-](F)(F)(F)(F)F.F[P-](F)(F)(F)(F)F.F[P-](F)(F)(F)(F)F.[Co+2].[Co+2].[Co+2].c1c(CN2CCCN3CCN(CCCNCC2)CC3)cc(CN2CCCN3CCN(CCCNCC2)CC3)cc1CN1CCCN2CCN(CCCNCC1)CC2 [CDG025, [Co3(tris-SB-Cyclams)(OAc)3][PF6]3] | 0.21 | 1.800 mg/L | 1.14 µM | 1.500 mg/L | 0.948 µM | 1.50 | 18.02% | – | – | – | – | – | –
19 | CC(=O)[O-].F[P-](F)(F)(F)(F)F.[Zn+2].c1ccc(CN2CCN3CCN(CC2)CCN(Cc2ccccc2)CC3)cc1 [RM42, [Zn(Bn2Bcyclen)(OAc)]PF6] | – | – | – | – | – | – | 30.63% | 0.73 | 4.73 mg/L | – | – | – | –
20 | [Zn2(m-SB-Cyclams)(OAc)2][PF6]2 [KS26] | 0.02 | 12.510 mg/L | 12.1 µM | – | – | – | 11.71% | – | – | – | – | – | –
21 | CC(=O)[O-].CC(=O)[O-].CN1CCCN2CCN(CCCN(Cc3ccc(CN4CCCN5CCN(C)CCCN(CC5)CC4)cc3)CC2)CC1.F[P-](F)(F)(F)(F)F.F[P-](F)(F)(F)(F)F.[Ni+2].[Ni+2] [KS33, [Ni2(p-CB-cyclams)(OAc)2](PF6)2] | 0.26 | 1.020 mg/L | 0.92 µM | – | – | – | 0.00% | – | – | – | 8.490 mg/L | 7.66 µM | 0.04
